Assay results taken from patent US9873693B2 (Sunesis Pharmaceuticals, Inc., priority 2006, dated 2018).
Read-outs that look alike come from different tables or passages of the source.

Tests used:
dephosphorylated PDK1 = dephosphorylated PDK1 (Homo sapiens (Human), UniProt O15530); experiment: PDK1 kinase assay (coupled PDK1/AKT/FAM-crosstide, IMAP); assay type: biochemical; conditions: 25 nM un-phosphorylated PDK1, 24 μM ATP; read-out: Inhibition of dephospo-PDK1 in vitro IC50
Outline: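 The FAM-crosstide phosphorylation readout was IMAP polarization (ex 485/em 530 nm, 2 h binding), with 4-parameter fits of ΔmP data. The reaction ran 30 min at 25 °C with 24 μM ATP, and contained 25 nM phosphatase-treated PDK1 (aa 51–360) plus 30 nM unphosphorylated AKT2-PIFtide and 100 nM substrate. Buffer was 10 mM Tris pH 7.2, 10 mM MgCl2, 0.01% Triton X-100 and 1 mM DTT.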

Phospho-T308 Akt = Phospho-T308 Akt detection using immunoblot (western blot) in PC-3 cells; assay type: cell-based; conditions: for Reduction of Cellular Levels of Akt p308 By Western: 2 hour incubation, concentration not given in Table 2; for inhibition at 5 µM: Homo sapiens, read-out: Percent Inhibition of phospho-Akt (308) By Western
Method: A Phospho-T308 Akt detection using immunoblot (western blot) analysis was performed as described below.
PC-3 prostate cells were plated in a 6 well plate in F12K media (Invitrogen, Carlsbad, Calif.) plus 10% FBS (Invitrogen) and placed in incubator overnight. The stock of compound A was a 50 mM solution in DMSO. 1000× dilutions of the compound were made in DMSO. The 1000× dilutions include, 35 mM, 25 mM, 15 mM, 10 mM, 7 mM, 5 mM, and 1 mM. 1 μl of the 1000× dilutions was added to 1 ml F12K media without serum for final concentrations of […]. 1 μl of DMSO was added to 1 ml media with no serum for a control. The 1 ml DMSO or compound plus media was then added to the cells. Following a 2 hour incubation at 37° C., cells were harvested and washed in PBS and subjected to centrifugation at 3,300 rpm for 5 minutes. Cells were lysed in 100 μl of Bio Rad Bioplex buffer containing protease inhibitors (BioRad, Hercules, Calif.) for 30 minutes on ice followed by centrifugation at 13,000 rpm for 5 minutes. The protein content of the supernatant was assayed using DC Protein Assay (BioRad). 25 μl of protein was added to 4× sample buffer (Invitrogen) and sample reducer (Invitrogen) and run on a 4-12% NuPage gel (Invitrogen). Proteins were then transferred to nitrocellulose (Invitrogen). The membrane was blocked in Tris-buffered saline (Sigma, St. Louis, Mo.) plus 0.1% Tween (Sigma) (T-TBS) plus 5% blotting grade milk (BioRad) for 60 minutes. Membranes were then incubated in T-TBS plus 5% BSA (Sigma) plus 1:1000 of anti-phospho akt (Thr 308) (Cell Signaling Technology, Beverly, Mass.) overnight at 4° C. Membranes were washed in T-TBS then incubated in 1:2000 of anti-rabbit-HRP (Cell Signaling) in TTBS plus 5% milk. Membranes were washed again and proteins were visualized with Super Signal West Pico (Pierce, Rockford, Ill.) and using Kodak BioMax MR film (Kodak, Rochester, N.Y.).
Phospho-akt 308 protein bands on the film were quantified using densitometry. An Alpha Imager (Alpha Innotech Corp, San Leandro, Calif.) using AlphaEase FC software version 4.1.0 (Alpha Innotech Corp.) was used to quantitate protein bands. Briefly, a rectangle of equal size was placed around each protein band as well as a background spot on the film. The densitometry values (IDV=Integrated Density Value) obtained for the background spot was then subtracted from the values obtained for the protein bands. These values were used to obtain an EC50 value using non-linear regression analysis in GraphPad Prism Version 4.00 (Graph Pad Prism, San Diego, Calif.). Percent decrease in expression of phosphoh-akt 308 were also measured specifically at 2 μM and 5 μM levels of inhibitor.

phospho-akt (Thr308) = phospho-akt (Thr308) MSD ELISA in PC-3 cells; assay type: cell-based; conditions: Homo sapiens, PC-3 cells; for EC50: PC-3, 2 h, 2 hours, no serum; for inhibition at 1 µM / inhibition at 10 µM: read-out: Percent Inhibition of phospho-Akt (308) By MSD ELISA
Outline: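 Read-out is MSD electrochemiluminescence after lysate capture overnight at 4 degrees and 1 hr RT detection-antibody step. Before lysis, overnight-plated PC-3 cells received three-fold serial dilutions of inhibitor in serum-free medium, with DMSO-only high controls.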

phosphorylated PDK1 = phosphorylated PDK1 (Homo sapiens (Human), UniProt O15530); experiment: PDK1 kinase assay (coupled PDK1/AKT/FAM-crosstide, IMAP); assay type: biochemical; conditions: 0.5 nM phosphorylated PDK1, 24 μM ATP; read-out: Inhibition of phospo-PDK1 in vitro IC50
[1] = read-out: Inhibition of P308 Akt in cells using MSD EC50
[2] = read-out: Reduction of Cellular Levels of Akt p308 By MSD ELISA (EC50 μM)

dephosphorylated PDK1, sequence (O15530 51-360): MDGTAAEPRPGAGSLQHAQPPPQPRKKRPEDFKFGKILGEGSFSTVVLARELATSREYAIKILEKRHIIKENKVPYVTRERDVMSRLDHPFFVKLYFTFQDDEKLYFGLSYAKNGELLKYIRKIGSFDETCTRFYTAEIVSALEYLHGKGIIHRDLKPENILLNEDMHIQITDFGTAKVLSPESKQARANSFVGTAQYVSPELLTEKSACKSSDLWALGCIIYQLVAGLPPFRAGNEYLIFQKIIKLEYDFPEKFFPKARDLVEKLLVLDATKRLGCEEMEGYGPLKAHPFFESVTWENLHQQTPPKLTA
phosphorylated PDK1, sequence (O15530 51-360): as above

SMILES	IC50 (dephosphorylated PDK1) [µM]	Reduction of Cellular Levels of Akt p308 By Western (Phospho-T308 Akt)	inhibition at 5 µM (Phospho-T308 Akt) [%]	EC50 (phospho-akt (Thr308); [1]) [µM]	inhibition at 1 µM (phospho-akt (Thr308)) [%]	inhibition at 10 µM (phospho-akt (Thr308)) [%]	IC50 (phosphorylated PDK1) [µM]	EC50 (phospho-akt (Thr308); [2]) [µM]
CNC(=O)C[C@@H](NC(=O)c1cccn(Cc2ccc(F)c(F)c2)c1=O)c1ncc(-c2c[nH]c3ncccc23)s1 [Cpd 137]	< 0.5	bbb (inhibition of more than 75%)	> 75	> 5	< 25	> 75	< 0.5	–
O=C(NCc1cccc(-c2ccc3n[nH]c(=O)n3c2)c1)c1cccn(Cc2ccc(F)c(F)c2)c1=O [Cpd 216]	< 0.5	bb (inhibition of from 25% to 75%)	25 to 75	–	–	–	0.5 to 10	–
O=C(NCc1cccc(-c2cn[nH]c2)c1)c1cccn(Cc2ccc(F)c(F)c2)c1=O [Cpd 222]	< 0.5	bb (inhibition of from 25% to 75%)	25 to 75	–	–	–	0.5 to 10	> 5
O=C(NCc1cccc(-c2c[nH]c3ncc(CO)cc23)c1)c1cccn(Cc2ccc(F)c(F)c2)c1=O [Cpd 225]	< 0.5	bbb (inhibition of more than 75%)	> 75	–	–	–	–	< 1
COC(=O)c1cc(-c2cccc(CNC(=O)c3cccn(Cc4ccc(F)c(F)c4)c3=O)c2)c[nH]1 [Cpd 230]	< 0.5	b (inhibition of less 25%)	< 25	–	25 to 75	> 75	< 0.5	–
NC[C@@H](NC(=O)c1cccn(Cc2ccc(F)c(F)c2)c1=O)c1nnc(-c2c[nH]c3ncccc23)o1 [Cpd 283]	< 0.5	bb (inhibition of from 25% to 75%)	25 to 75	1 to 5	–	–	< 0.5	1 to 5
CC(C)(C)OC(=O)C[C@@H](NC(=O)c1cccn(Cc2ccc(F)c(F)c2)c1=O)c1nnc(-c2c[nH]c3ncccc23)o1 [Cpd 286]	< 0.5	bbb (inhibition of more than 75%)	> 75	< 1	25 to 75	> 75	< 0.5	–
NC(=O)C[C@@H](NC(=O)c1cccn(Cc2ccc(F)c(F)c2)c1=O)c1nnc(-c2c[nH]c3ncccc23)o1 [Cpd 289]	< 0.5	b (inhibition of less 25%)	< 25	–	< 25	< 25	–	–
COC(=O)C[C@H](NC(=O)c1cccn(Cc2ccc(F)c(F)c2)c1=O)c1nnc(-c2c[nH]c3ncccc23)o1 [Cpd 291]	–	bbb (inhibition of more than 75%)	> 75	< 1	25 to 75	> 75	< 0.5	–
O=C(NCc1noc(-c2c[nH]c3ncccc23)n1)c1cccn(Cc2cccc(Cl)c2)c1=O [Cpd 294]	< 0.5	bb (inhibition of from 25% to 75%)	25 to 75	–	–	–	< 0.5	–
CNC(=O)C[C@@H](NC(=O)c1cccn(Cc2ccc(F)c(F)c2)c1=O)c1nnc(-c2c[nH]c3ncccc23)o1 [Cpd 299]	–	bb (inhibition of from 25% to 75%)	25 to 75	–	< 25	< 25	< 0.5	–
